Test results taken from patent publication US20260344661A1, “USE OF AN ALKYLETHER SULFATE FOR IMPROVING THE EFFICACY OF HERBICIDES” (BASF SE, priority 2022, published 2026).

Key:
[1] = tested on: DIGSA (large crabgrass); assay: Greenhouse post-emergence weed control, damage vs untreated (DIGSA); type: in vivo, Digitaria sanguinalis; settings: 20 DAT
Experimental: (§1) A greenhouse study was conducted to evaluate the effect of the alkylether sulfates of formula (I) and other adjuvants on the weed control efficacy of glufosinate. Seedlings of grass plants (AVEFA, ECHCG, DIGSA and SETVI) and broadleaf weeds (KCHSC, CHEAL, AMAPA, AMATA and ABUTH) were grown to a height of 3 to 20 cm, depending on the plant habit in 10×10×10 cm pots filled with sandy planting soil (Limburgerhof soil). The weeds were treated with postemergence applications of glufosinate ammonium at the respective application rates given in the following tables, either alone or combined with various amounts of the respective adjuvants.
(§2) For this, the herbicide formulation and the respective adjuvant were introduced into tap water to obtain the spray liquor. […] The spray liquor was then applied to the plant a spray volume of 200 l/ha using a sprayer (XR Teejet 110015).
(§3) The test period extended over 21 days. During this time, the plants were tended, and their response to the treatments with active compound was evaluated.
(§4) The evaluation for the damage caused by the chemical compositions was carried out using a scale from 0 to 100%, compared to the untreated control plants. Here, 0 means no damage and 100 means complete destruction of the plants.
The plants used in the greenhouse experiments belonged to the following species: […]

[2] = tested on: SETVI (green foxtail); assay: Greenhouse post-emergence weed control, damage vs untreated (SETVI); type: in vivo, Setaria viridis
Experimental: as §1, §2, §3, §4
The plants used in the greenhouse experiments belonged to the following species:
The results are summarized in the following tables 1 to 15 that show the applied doses of the individual actives as gram of active ingredient per hectare (g ai/ha), the herbicidal activity of the individual […]

[3] = 5 g ai/ha L-glufosinate (so in the source), no adjuvant
[4] = 37.5 g ai/ha L-glufosinate, adjuvant g ai/ha: none (CE1-B), 56 (IE2-A), 62.125 (IE2-B), 51.625 (CE2-F)
[5] = 150 g ai/ha L-glufosinate, adjuvant g ai/ha: none (CE1-B), 223 (IE2-A), 248.5 (IE2-B), 206.5 (CE2-F)
[6] = 300 g ai/ha L-glufosinate, adjuvant g ai/ha: none (CE1-B), 446 (IE2-A), 497 (IE2-B), 413 (CE2-F)

CP(=O)(O)CC[C@H](N)C(=O)O.N [CE1-B, ammonium (2S)-2-amino-4-(methylphosphinato)butyric acid]
% activity [1, 3]: 0%
% activity DIGSA ([1]; g ai/ha: 42.375 solo (CE1-C), 42.375 + 66.97 combined (IE3-A/B/C, CE2-J)): 5%
% activity DIGSA ([1]; g ai/ha: 84.75 solo (CE1-C), 84.75 + 133.94 combined (IE3-A/B/C, CE2-J)): 15%
% activity DIGSA ([1]; g ai/ha: 169.5 solo (CE1-C), 169.5 + 267.89 combined (IE3-A/B/C, CE2-J)): 55%
% activity DIGSA ([1]; g ai/ha: 339 solo (CE1-C), 339 + 535.77 combined (IE3-A/B/C, CE2-J)): 70%
% activity [1, 4]: 0%
% activity [1, 5]: 30%
% activity [1, 6]: 40%
% activity [2, 3]: 98%
% activity [2, 4]: 85%
% activity [2, 5]: 98%
% activity [2, 6]: 95%
